What was measured:
[1] = system: mice; experiment: Body temperature, nicotine-induced hypothermia; type: in vivo; conditions: Saline/Nicotine (1.5 mg/kg), s.c.
Protocol: Animals. Male ICR mice (20-25 g) obtained from Harlan Laboratories (Indianapolis, Ind.) were used throughout the study. Animals were housed in groups of six and had free access to food and water. Adult, male Long-Evans rats (350-460 g), obtained from Harlan (Dublin, Va.), were individually housed in a temperature-controlled (20-22° C.) environment with a 12-hour light-dark cycle (lights on at 7 a.m.). Rats were maintained within the indicated weight range by restricted post-session feeding and had ad libitum water in their home cages. Rats were drug-naive at the beginning of the study. Animals were housed in an AALAC approved facility and the study was approved by the Institutional Animal Care and Use Committee of Virginia Commonwealth University. Body temperature. Rectal temperature was determined by a thermistor probe (inserted 24 mm) and digital thermometer (Yellow Springs Instrument Co., Yellow Springs, Ohio). […] The difference in rectal temperature before and after treatment was calculated for each mouse. The ambient temperature of the laboratory varied from 21-24° C. from day to day. […] Psychopharmacology (Berl), 1995, 117:67-73). Eight to twelve mice were tested in each treatment group and each animal was tested only once. Statistical analysis. Statistical analysis of all analgesic and in vivo studies was performed using either t-test or analysis of variance (ANOVA) with Tukey's test post hoc test when appropriate.

[2] = system: mice; experiment: Locomotor activity, nicotine-induced hypomotility; type: in vivo; conditions: Saline/Nicotine (1.5 mg/kg), s.c.
Protocol: Animals. Male ICR mice (20-25 g) obtained from Harlan Laboratories (Indianapolis, Ind.) were used throughout the study. Animals were housed in groups of six and had free access to food and water. Adult, male Long-Evans rats (350-460 g), obtained from Harlan (Dublin, Va.), were individually housed in a temperature-controlled (20-22° C.) environment with a 12-hour light-dark cycle (lights on at 7 a.m.). Rats were maintained within the indicated weight range by restricted post-session feeding and had ad libitum water in their home cages. Rats were drug-naive at the beginning of the study. Animals were housed in an AALAC approved facility and the study was approved by the Institutional Animal Care and Use Committee of Virginia Commonwealth University.
Locomotor activity. Mice were placed into individual Omnitech photocell activity cages (28×16.5 cm) immediately after s.c. administration of either 0.9% saline or nicotine (6.2 μmol/kg or 1 mg/kg) and were allowed to acclimate for 10 minutes. Interruptions of the photocell beams (two banks of eight cells each) were then recorded for the next 10 minutes. Data were expressed as percentage of depression where % depression=[1−(counts from nicotine-treated animals/counts from vehicle-treated animals)]×100. Mice were pretreated s.c. with either saline or TMPH 10 minutes before nicotine.
Eight to twelve mice were tested in each treatment group and each animal was tested only once.
Statistical analysis. Statistical analysis of all analgesic and in vivo studies was performed using either t-test or analysis of variance (ANOVA) with Tukey's test post hoc test when appropriate. All differences were considered significant at p<0.05. AD50 values with 95% CL for behavioral data were calculated by unweighted least-squares linear regression as described by Tallarida and Murray (Tallarida and Murray Manual of Pharmacological Calculations with Computer Programs. 1987, Springer-Verlag, New York).

[3] = target: T1, Rat α4β2 (Rattus norvegicus, UniProt P09483+P12390); conditions: mecamylamine, comparison value in discussion; read-out: IC50 (peak), expressed α4β2 subtypes; cited from earlier work
T1 construct: expressed in transfected cells; host or cells: Xenopus laevis oocytes injected with subunit cRNAs; clones from Dr. Jim Boulter (UCLA)
T1 sequence (P09483 31-630): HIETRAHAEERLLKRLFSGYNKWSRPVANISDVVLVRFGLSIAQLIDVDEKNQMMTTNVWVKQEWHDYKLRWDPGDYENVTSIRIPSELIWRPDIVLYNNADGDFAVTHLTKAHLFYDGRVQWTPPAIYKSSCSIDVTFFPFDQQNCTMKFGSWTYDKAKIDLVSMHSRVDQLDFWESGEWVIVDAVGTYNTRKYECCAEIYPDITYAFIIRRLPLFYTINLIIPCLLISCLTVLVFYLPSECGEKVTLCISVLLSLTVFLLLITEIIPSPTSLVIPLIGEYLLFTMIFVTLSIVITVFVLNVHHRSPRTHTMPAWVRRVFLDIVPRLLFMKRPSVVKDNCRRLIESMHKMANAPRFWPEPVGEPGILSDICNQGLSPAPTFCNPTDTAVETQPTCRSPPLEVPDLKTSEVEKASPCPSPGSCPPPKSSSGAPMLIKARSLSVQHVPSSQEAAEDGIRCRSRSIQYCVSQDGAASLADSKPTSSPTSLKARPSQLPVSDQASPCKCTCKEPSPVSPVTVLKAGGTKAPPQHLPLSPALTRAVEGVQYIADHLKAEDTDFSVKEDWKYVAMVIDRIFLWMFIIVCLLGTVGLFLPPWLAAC
T1 sequence (P12390 25-500): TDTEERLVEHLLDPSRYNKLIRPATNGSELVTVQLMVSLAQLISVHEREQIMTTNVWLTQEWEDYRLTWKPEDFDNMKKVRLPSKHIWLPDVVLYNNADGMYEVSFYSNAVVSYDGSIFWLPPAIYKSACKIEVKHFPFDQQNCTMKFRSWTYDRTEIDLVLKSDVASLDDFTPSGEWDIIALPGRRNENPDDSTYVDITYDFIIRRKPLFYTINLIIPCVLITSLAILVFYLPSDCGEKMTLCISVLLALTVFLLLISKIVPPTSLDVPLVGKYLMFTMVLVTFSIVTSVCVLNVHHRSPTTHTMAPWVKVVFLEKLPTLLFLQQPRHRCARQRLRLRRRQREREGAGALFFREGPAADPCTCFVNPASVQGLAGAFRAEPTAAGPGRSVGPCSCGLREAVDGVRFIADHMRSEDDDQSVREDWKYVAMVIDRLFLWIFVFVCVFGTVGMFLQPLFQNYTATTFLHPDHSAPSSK

Compound | Body temperature Δ° C. (Mean ± SEM) [1] [°C] | Locomotor Activity # Interrupts (Mean ± SEM) [2] | IC50 [3] [nM]
CN1CCCC1c1cccnc1 (single isomer, unassigned; (-)) [Nicotine, (−)-Nicotine] | −5.0 ± 0.3 | 358 ± 92 # Interrupts | 
CNC1(C)C2CCC(C2)C1(C)C (stereo not drawn) [Mecamylamine] |  |  | 2500
